In ChEMBL document CHEMBL1121801, “Salicylamide derivatives related to medroxalol with alpha- and beta-adrenergic antagonist and antihypertension activity” (J Med Chem, 1981):

Tests used:
[1] = molecular target: T1, Adrenergic receptor alpha-1 (Homo sapiens, UniProt P35348+P25100+P35368); assay: In vitro blocking activity against alpha adrenergic receptor, isolated from rabbit aortic strip; type: protein assay, Oryctolagus cuniculus
T1 sequence (P35348 whole entry): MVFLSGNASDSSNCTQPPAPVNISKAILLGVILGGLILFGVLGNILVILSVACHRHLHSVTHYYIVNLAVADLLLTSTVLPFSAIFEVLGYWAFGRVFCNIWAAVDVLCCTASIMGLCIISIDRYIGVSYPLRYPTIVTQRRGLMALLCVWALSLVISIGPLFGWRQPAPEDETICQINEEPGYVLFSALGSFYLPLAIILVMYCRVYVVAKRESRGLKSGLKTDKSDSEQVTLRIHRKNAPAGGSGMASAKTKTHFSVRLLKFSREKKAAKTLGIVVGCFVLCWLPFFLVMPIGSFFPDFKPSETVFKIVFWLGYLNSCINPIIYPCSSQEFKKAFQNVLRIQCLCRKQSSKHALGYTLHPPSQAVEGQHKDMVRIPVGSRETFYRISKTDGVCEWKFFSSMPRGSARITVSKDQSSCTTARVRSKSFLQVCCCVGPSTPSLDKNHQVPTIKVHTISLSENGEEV
T1 sequence (P25100 whole entry): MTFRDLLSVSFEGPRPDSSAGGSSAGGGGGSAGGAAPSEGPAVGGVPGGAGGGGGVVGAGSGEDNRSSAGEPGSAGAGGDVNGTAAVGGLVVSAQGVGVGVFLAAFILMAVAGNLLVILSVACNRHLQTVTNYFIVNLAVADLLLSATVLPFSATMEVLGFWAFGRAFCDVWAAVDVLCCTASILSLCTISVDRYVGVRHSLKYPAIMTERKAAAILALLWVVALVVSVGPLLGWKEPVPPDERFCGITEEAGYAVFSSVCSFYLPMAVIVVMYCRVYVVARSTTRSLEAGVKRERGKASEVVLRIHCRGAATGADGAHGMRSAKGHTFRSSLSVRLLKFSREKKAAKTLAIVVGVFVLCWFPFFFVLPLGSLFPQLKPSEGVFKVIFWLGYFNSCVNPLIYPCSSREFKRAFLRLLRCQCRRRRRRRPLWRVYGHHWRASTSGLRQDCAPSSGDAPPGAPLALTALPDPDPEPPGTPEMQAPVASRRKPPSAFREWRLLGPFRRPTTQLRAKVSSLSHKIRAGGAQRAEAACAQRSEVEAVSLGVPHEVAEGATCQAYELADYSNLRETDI
T1 sequence (P35368 whole entry): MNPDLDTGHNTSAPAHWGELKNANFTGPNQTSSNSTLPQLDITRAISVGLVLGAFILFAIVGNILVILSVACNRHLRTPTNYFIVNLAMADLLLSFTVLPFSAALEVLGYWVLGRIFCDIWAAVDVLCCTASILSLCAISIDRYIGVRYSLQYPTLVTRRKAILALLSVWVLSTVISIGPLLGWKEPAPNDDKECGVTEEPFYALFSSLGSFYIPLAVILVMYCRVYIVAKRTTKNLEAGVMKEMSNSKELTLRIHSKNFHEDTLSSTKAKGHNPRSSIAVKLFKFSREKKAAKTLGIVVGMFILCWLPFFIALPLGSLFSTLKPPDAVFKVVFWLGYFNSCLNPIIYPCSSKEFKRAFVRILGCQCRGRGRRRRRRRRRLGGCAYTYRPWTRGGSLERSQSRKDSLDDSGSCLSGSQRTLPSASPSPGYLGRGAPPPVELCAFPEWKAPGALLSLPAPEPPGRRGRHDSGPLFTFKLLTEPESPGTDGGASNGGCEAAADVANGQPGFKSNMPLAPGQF

Oryctolagus cuniculus = species on record: Oryctolagus cuniculus; assay: Ratio of pA2 for beta-adrenergic receptor to that of alpha-adrenergic receptor
Adrenergic receptor beta = Adrenergic receptor beta (Homo sapiens, UniProt P08588+P07550+P13945); assay: In vitro blocking activity against beta adrenergic receptor, isolated from guinea pig atria; type: protein assay
Cavia porcellus = species on record: Cavia porcellus; assay: spasmolytic activity in isolated guinea pig ileum preparation;- log KB; (Bacl2); type: functional, organism-based; conditions: read-out: pA2 (converted)
Rattus norvegicus [2] = assay: Antihypertensive activity in spontaneously hypertensive rats(SHR) at 50 mg/kg peroral dose after 1 h, expressed as decrease in systolic blood pressure; type: functional, Artery; conditions: route oral
Rattus norvegicus [3] = assay: Antihypertensive activity in spontaneously hypertensive rats(SHR) at 50 mg/kg peroral dose after 4 h, expressed as decrease in systolic blood pressure; type: functional, Artery; conditions: route oral
[4] = molecular target: Beta-1 adrenergic receptor (Homo sapiens) (UniProt P08588); conditions: Canis lupus familiaris;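 further: anesthetized dogs dosed intravenously, sympatholytic action measured as inhibition of the chronotropic response to isoproterenol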
Description: In vivo sympatholytic activity (isoproterenol-induced chronotropy) at beta 1-adrenergic receptor in anesthetized dog, iv

[5] = molecular target: Beta-2 adrenergic receptor (Canis lupus familiaris) (UniProt P54833);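 further: Beta-2 blockade of isoproterenol-induced vasodepression in anesthetized dogs, given intravenously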
Description: In vivo sympatholytic activity (isoproterenol-induced vasodepression) at beta 2-adrenergic receptor in anesthetized dog, iv

[6] = molecular target: Adrenergic receptor alpha (Homo sapiens) (UniProt P35348+P08913+P18825+P25100+P35368+P18089); conditions: Canis lupus familiaris
Description: In vivo sympatholytic activity (phenylephrine-induced vasopressor response) at alpha-adrenergic receptor in anesthetized dog, iv

Sequence of Beta-2 adrenergic receptor (Canis lupus familiaris) (P54833 whole entry, looked up): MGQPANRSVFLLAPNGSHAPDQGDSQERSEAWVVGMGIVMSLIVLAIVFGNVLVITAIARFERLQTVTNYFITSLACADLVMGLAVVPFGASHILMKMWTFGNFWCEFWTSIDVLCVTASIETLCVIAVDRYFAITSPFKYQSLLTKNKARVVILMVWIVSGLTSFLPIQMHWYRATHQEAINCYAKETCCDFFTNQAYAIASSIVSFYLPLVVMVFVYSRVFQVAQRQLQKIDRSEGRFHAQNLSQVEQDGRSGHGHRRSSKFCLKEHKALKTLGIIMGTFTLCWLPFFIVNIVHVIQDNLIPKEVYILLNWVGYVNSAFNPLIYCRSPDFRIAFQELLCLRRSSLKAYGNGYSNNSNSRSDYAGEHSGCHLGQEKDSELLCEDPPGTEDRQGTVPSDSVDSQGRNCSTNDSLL
Sequence of Beta-1 adrenergic receptor (Homo sapiens) (P08588 whole entry, looked up): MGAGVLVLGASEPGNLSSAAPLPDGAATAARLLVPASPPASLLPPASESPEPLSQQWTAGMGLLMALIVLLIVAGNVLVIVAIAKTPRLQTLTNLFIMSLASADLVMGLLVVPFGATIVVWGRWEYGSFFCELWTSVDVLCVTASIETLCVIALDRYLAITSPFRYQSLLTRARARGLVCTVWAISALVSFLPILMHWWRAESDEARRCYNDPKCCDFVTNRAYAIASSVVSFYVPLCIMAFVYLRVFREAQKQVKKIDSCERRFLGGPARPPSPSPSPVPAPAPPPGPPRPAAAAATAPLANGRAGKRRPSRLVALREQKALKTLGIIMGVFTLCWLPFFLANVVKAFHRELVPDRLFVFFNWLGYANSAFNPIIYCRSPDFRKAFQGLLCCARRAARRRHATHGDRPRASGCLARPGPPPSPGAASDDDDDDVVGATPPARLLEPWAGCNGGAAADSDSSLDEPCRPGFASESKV

pA2 [1] | Ratio (Oryctolagus cuniculus) | pA2 (Adrenergic receptor beta) | DR10 [4] | DR10 [5] | DR10 [6] | Compound | Kb (Cavia porcellus) | BP decrease (Rattus norvegicus [2]) | BP decrease (Rattus norvegicus [3])
7.57 | 0.1 | 6.7 | 15.3 mg/kg | > 10 mg/kg | 1.09 mg/kg | Cc1ccccc1N1CCN(CC(O)c2ccc(O)c(C(N)=O)c2)CC1.Cl.Cl (stereo not given) | 1.86 µM | 48 mmHg | 37 mmHg
< 5 |  | < 5 |  |  |  | COC(=O)c1cc(C(O)CN2CCN(C(=O)c3ccco3)CC2)ccc1O.Cl (stereo not given) | 17.4 µM | 37 mmHg | 15 mmHg
7.04 |  | 4.19 |  |  |  | Cl.NC(=O)c1cc(C(O)CN2CCN(c3ccccc3)CC2)ccc1O (stereo not given) |  | 7 mmHg | 9 mmHg
6.2 | 0.4 | 5.84 |  |  |  | NC(=O)c1cc(C(O)CNCC2COc3ccccc3O2)ccc1O (stereo not given) | 26.9 µM | 24 mmHg | 18 mmHg
< 5 |  | 6.55 |  |  |  | COC(=O)c1cc(C(O)CNC(C)(C)CCc2ccc3c(c2)OCO3)ccc1O.Cl (stereo not given) | 2.63 µM | 41 mmHg | 39 mmHg
6.21 | 0.5 | 5.92 |  |  |  | COC(=O)c1cc(C(O)CNCC2COc3ccccc3O2)ccc1O.Cl (stereo not given) | 4.07 µM | 46 mmHg | 31 mmHg
7 | 0.3 | 6.41 |  |  |  | COC(=O)c1cc(C(O)CN2CCN(c3ccccc3OC)CC2)ccc1OC.Cl (stereo not given) | 34.7 µM | 37 mmHg | 35 mmHg
5.56 | 372 | 8.1 |  |  |  | COC(=O)c1cc(C(O)CNC(C)CCc2ccc3c(c2)OCO3)ccc1OC.Cl (stereo not given) | 2.75 µM | 44 mmHg | 22 mmHg
6.8 | 0.04 | 5.41 |  |  |  | COc1ccc(C(O)CN2CCN(c3ccccc3OC)CC2)cc1C(N)=O.Cl (stereo not given) | 33.1 µM | 56 mmHg | 46 mmHg
7.21 | 0.1 | 6.33 |  |  |  | Cc1ccccc1N1CCN(CC(O)c2ccc(O)c(C(=O)NCC(C)(C)C)c2)CC1.Cl (stereo not given) | 0.224 µM | 41 mmHg | 32 mmHg
7.56 | 0.04 | 6.14 |  |  |  | Cc1ccccc1N1CCN(CC(O)c2ccc(O)c(C3N=NN=N3)c2)CC1 (stereo not given) | > 100 µM | 48 mmHg | 47 mmHg
7.42 | 0.1 | 6.44 |  |  |  | COc1ccccc1N1CCN(CC(O)c2ccc(O)c(C(N)=O)c2)CC1.Cl (stereo not given) | 13.5 µM | 45 mmHg | 35 mmHg
5.47 | 0.2 | 5.17 |  |  |  | CNC(=O)c1cc(C(O)CN2CCN(c3ccc(OC)cc3)CC2)ccc1O.Cl (stereo not given) | 15.1 µM | 20 mmHg | 14 mmHg
5.46 | 56 | 7.21 |  |  |  | CC(CCc1ccc2c(c1)OCO2)NCC(O)c1ccc(O)c(C(=O)N(C)C)c1.Cl (stereo not given) | 8.71 µM | 24 mmHg | 22 mmHg
5.2 | 0.8 | 5.1 |  |  |  | CC(CCc1ccc2c(c1)OCO2)NCC(O)c1ccc(O)c(C(=O)O)c1.Cl (stereo not given) | > 100 µM | 6 mmHg | 5 mmHg
5.31 | 69 | 7.15 | 2.1 mg/kg | 0.76 mg/kg |  | CC(C)(CCc1ccc2c(c1)OCO2)NCC(O)c1ccc(O)c(C(N)=O)c1.Cl (stereo not given) | 0.676 µM | 43 mmHg | 61 mmHg
6.87 | 0.2 | 6.17 |  |  |  | NC(=O)c1cc(C(O)CN2CCN(c3ccc(Cl)cc3)CC2)ccc1O (stereo not given) | 26.3 µM | 49 mmHg | 56 mmHg
< 5 |  | < 5 |  |  |  | NC(=O)c1cc(C(O)CN2CCN(C(=O)c3ccco3)CC2)ccc1O (stereo not given) | > 100 µM | 30 mmHg | 28 mmHg
5.13 | 0.9 | 5.07 |  |  |  | Cl.NC(=O)c1cc(C(O)CN2CCN(Cc3ccccc3)CC2)ccc1O (stereo not given) | > 74.1 µM | 35 mmHg | 40 mmHg
6.13 | 0.5 | 5.84 |  |  |  | COc1ccc(N2CCN(CC(O)c3ccc(O)c(C(N)=O)c3)CC2)cc1.Cl.Cl (stereo not given) | > 52.5 µM | 10 mmHg | 7 mmHg
 |  |  |  |  |  | CC(C)NCC(O)COc1cccc2ccccc12.Cl (stereo not given) [PROPRANOLOL HYDROCHLORIDE] |  | 28 mmHg | 46 mmHg
7.45 | 0.2 | 6.79 |  |  |  | COC(=O)c1cc(C(O)CN2CCN(c3ccccc3C)CC2)ccc1O.Cl (stereo not given) | 0.871 µM | 5 mmHg | 6 mmHg
6.54 |  | < 5 |  |  |  | COc1ccc(C(O)CN2CCN(c3ccccc3)CC2)cc1C(N)=O.Cl (stereo not given) | 64.6 µM | 38 mmHg | 25 mmHg
 |  |  |  |  |  | CC(CCc1ccccc1)NC(C)C(O)c1ccc(O)cc1.Cl (stereo not given) [NYLIDRIN HYDROCHLORIDE] |  | 54 mmHg | 51 mmHg
6.27 | 0.1 | 5.27 |  |  |  | CCOc1ccc(C(O)CN2CCN(c3ccccc3)CC2)cc1C(N)=O.Cl (stereo not given) | 21.4 µM | 22 mmHg | 19 mmHg
7.95 |  |  |  |  |  | CNC(=O)c1cc(C(O)CN2CCN(c3ccccc3OC)CC2)ccc1O.Cl (stereo not given) | 9.55 µM | 44 mmHg | 52 mmHg
6.33 | 3.7 | 6.9 |  |  |  | Cl.NC(=O)c1cc(C(O)CN2CCN(c3cccc(C(F)(F)F)c3)CC2)ccc1O (stereo not given) | 1.82 µM | 1 mmHg | 18 mmHg
6.08 | 0.2 | 5.37 |  |  |  | Cl.NC(=O)c1cc(C(O)CN2CCN(c3ccccn3)CC2)ccc1O (stereo not given) | 126 µM | 16 mmHg | 13 mmHg

Compound | pA2 [1] | Ratio (Oryctolagus cuniculus) | pA2 (Adrenergic receptor beta) | DR10 [4] | DR10 [5] | DR10 [6] | Kb (Cavia porcellus) | BP decrease (Rattus norvegicus [2]) | BP decrease (Rattus norvegicus [3])
Cl.NC(=O)c1cc(C(O)CN2CCC(n3c(O)nc4ccccc43)CC2)ccc1O (stereo not given) | 6.7 | 0.06 | 5.45 |  |  |  | > 61.7 µM | 6 mmHg | 15 mmHg
COC(=O)c1cc(C(O)CN2CCC(n3c(O)nc4ccccc43)CC2)ccc1O.Cl (stereo not given) | 6.94 | 0.06 | 5.71 |  |  |  | 1.26 µM | 52 mmHg | 37 mmHg
CCNC(=O)c1cc(C(O)CN2CCC(n3c(O)nc4ccccc43)CC2)ccc1O.Cl (stereo not given) | 6.63 | < 0.06 | < 5.38 |  |  |  | 6.92 µM | 22 mmHg | 51 mmHg
